From patent publication US20250195521A1 (Revolution Medicines, Inc., priority 2020, published 2025)

Experiments:
[1] = molecular target: KRAS G13D binding to BRAF RBD (Homo sapiens (Human), UniProt P01116+P62937, G13D); assay: Ras-Raf disruption/FRET/MOA assay, KRAS G13D; type: biochemical
Excerpt: (§1) Note—The following protocol describes a procedure for monitoring disruption of K-Ras G12C(GMP-PNP) binding to BRAF^RBD by a compound of the invention. This protocol may also be executed substituting other Ras proteins or nucleotides.
(§2) The purpose of this biochemical assay was to measure the ability of test compounds to facilitate ternary complex formation between a nucleotide-loaded K-Ras isoform and Cyclophilin A; the resulting ternary complex disrupts binding to a BRAF^RBD construct, inhibiting K-Ras signaling through a RAF effector. Data is reported as IC50 values.
(§3) Compound was present in plate wells as a 10-point 3-fold dilution series starting at a final concentration of 30 μM. After incubation at 25° C. for 3 hours, a mixture of Anti-His Eu—W1024 and anti-GST allophycocyanin was then added to assay sample wells at final concentrations of 10 nM and 50 nM, respectively, and the reaction incubated for an additional 1.5 hours. […] Compounds that facilitate disruption of a K-Ras: RAF complex were identified as those eliciting a decrease in the TR-FRET ratio relative to DMSO control wells.

[2] = molecular target: NRAS G12C binding to BRAF RBD (Homo sapiens (Human), UniProt P01111+P62937, G12C); assay: Ras-Raf disruption/FRET/MOA assay, NRAS G12C; type: biochemical
NRAS G12C binding to BRAF RBD, sequence (P01111 whole entry G12C): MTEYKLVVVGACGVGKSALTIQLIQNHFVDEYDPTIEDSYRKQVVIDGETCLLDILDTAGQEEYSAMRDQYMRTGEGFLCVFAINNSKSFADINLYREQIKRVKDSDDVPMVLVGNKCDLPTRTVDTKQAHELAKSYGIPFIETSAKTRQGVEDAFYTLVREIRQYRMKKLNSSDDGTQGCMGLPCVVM
NRAS G12C binding to BRAF RBD, sequence (P62937 whole entry): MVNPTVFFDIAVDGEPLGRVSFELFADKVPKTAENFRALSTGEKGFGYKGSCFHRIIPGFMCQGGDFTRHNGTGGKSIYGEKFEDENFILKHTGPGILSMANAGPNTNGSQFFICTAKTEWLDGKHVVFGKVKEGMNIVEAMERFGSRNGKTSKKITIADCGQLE
Excerpt: as §1, §2, §3

NCI-H358 (K-Ras G12C) = assay: CellTiter-Glo cell viability assay, NCI-H358; type: cell-based, human; conditions: Homo sapiens, NCI-H358, 120 h, 5-day treatment; read-out: H358 Cell Viability assay data (K-Ras G12C, IC50)
Outline: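 Five-day compound treatment of NCI-H358 cells, then CellTiter-Glo luminescence, percent of DMSO, four-parameter logistic fit.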

KRAS G13D binding to BRAF RBD, sequence (P01116 other isoform, or with tags, fused parts or gaps G13D): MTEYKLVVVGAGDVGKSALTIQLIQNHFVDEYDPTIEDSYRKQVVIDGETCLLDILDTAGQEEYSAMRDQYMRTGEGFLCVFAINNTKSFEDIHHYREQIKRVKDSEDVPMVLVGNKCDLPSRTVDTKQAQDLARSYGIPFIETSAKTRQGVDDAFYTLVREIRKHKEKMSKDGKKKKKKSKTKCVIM
KRAS G13D binding to BRAF RBD, sequence (P62937 whole entry): as the sequence (P62937 whole entry) above

| SMILES | IC50 [1] [nM] | IC50 [2] [nM] | IC50 (NCI-H358 (K-Ras G12C)) [nM] |
| --- | --- | --- | --- |
| CCn1c(-c2cccnc2[C@H](C)OC)c2c3cc(ccc31)-c1csc(n1)C[C@H](NC(=O)[C@H](C(C)C)N1CC[C@]3(CCN(C(=O)C#CC(C)(C)N(C)C)C3)C1=O)C(=O)N1CCC[C@H](N1)C(=O)OCC(C)(C)C2 (single isomer, unassigned) [Compound A425] | > 10000 | 10 to 100 | – |
| CCn1c(-c2cccnc2COC)c2c3cc(ccc31)-c1cc(C)cc(c1)C[C@H](NC(=O)[C@@H](C(C)C)N(C)C(=O)[C@H]1CCN(C(=O)C#CCN(C)C)C1)C(=O)N1CCC[C@H](N1)C(=O)OCC(C)(C)C2 [Compound A156] | 1000 to 10000 | 100 to 1000 | – |
| CCn1c(-c2cccnc2[C@H](C)OC)c2c3cc(ccc31)-c1cc(cc(C(F)F)c1)C[C@H](NC(=O)[C@@H](COC1CN(C(=O)C#CC(C)(C)N(C)C)C1)C(C)C)C(=O)N1CCC[C@H](N1)C(=O)OCC(C)(C)C2 [Compound A404] | > 10000 | 100 to 1000 | – |
| CCn1c(-c2cccnc2[C@H](C)OC)c2c3cc(ccc31)-c1cccc(c1)C[C@H](NC(=O)[C@H](C(C)C)N1CC[C@]3(CCN(C(=O)C#CC(C)(C)N(C)C)C3)C1=O)C(=O)N1CCC[C@H](N1)C(=O)OCC(C)(C)C2 [Compound A414] | > 10000 | – | – |

Continued, values first:

| IC50 [1] [nM] | IC50 [2] [nM] | IC50 (NCI-H358 (K-Ras G12C)) [nM] | SMILES |
| --- | --- | --- | --- |
| > 10000 | 1000 to 10000 | – | CC#CC(=O)N1CC[C@]2(CCN([C@H](C(=O)N[C@H]3Cc4cccc(c4)-c4ccc5c(c4)c(c(-c4cccnc4[C@H](C)OC)n5CC)CC(C)(C)COC(=O)[C@@H]4CCCN(N4)C3=O)C(C)C)C2=O)C1 (single isomer, unassigned) [Compound A426] |
| > 10000 | 1000 to 10000 | 100 to 1000 | C=CC(=O)N1CC[C@H](C(=O)N(C)[C@H](C(=O)N[C@H]2Cc3cc(O)cc(c3)-c3ccc4c(c3)c(c(-c3cccc(CN(C)C)c3)n4CC)CC(C)(C)COC(=O)[C@@H]3CCCN(N3)C2=O)C(C)C)C1 [Compound A106] |
| 1000 to 10000 | 100 to 1000 | – | CCn1c(-c2cccnc2COC)c2c3cc(ccc31)-c1cc(O)cc(c1)C[C@H](NC(=O)[C@H](C(C)C)N(C)C(=O)[C@H]1CCN(C(=O)/C=C\CN(C)C)C1)C(=O)N1CCC[C@H](N1)C(=O)OCC(C)(C)C2 [Compound A161] |
